Test results as given in the NIST ThermoML archive (doi:10.1021/je060457+).

Experiment: xn = mol fraction of the nth substance listed
Conditions: 101 kPa, Liquid; for viscosity: Capillary tube (Ostwald / Ubbelohde) method; for mass density: Vibrating tube method

CNCCO [2-(methylamino)ethanol] + O
Conditions	mass density [kg/m3]	viscosity [mPa·s]
298.15 K, x1 = 0.0493	–	1.801
298.15 K, x1 = 0.0499	996.45	–
298.15 K, x1 = 0.0657	996.78	2.258
298.15 K, x1 = 0.1054	997.9	3.804
298.15 K, x1 = 0.1987	996.03	8.788
298.15 K, x1 = 0.2946	–	13.51
298.15 K, x1 = 0.301	988.25	–
298.15 K, x1 = 0.3834	980.24	–
298.15 K, x1 = 0.388	–	18.21
298.15 K, x1 = 0.5041	968.81	19.98
298.15 K, x1 = 0.6	960.3	19.11
298.15 K, x1 = 0.6974	953.64	–
298.15 K, x1 = 0.7003	–	17.02
298.15 K, x1 = 0.8009	946.63	–
298.15 K, x1 = 0.8019	–	14.38
298.15 K, x1 = 0.898	–	12.46
298.15 K, x1 = 0.9031	940.86	–
298.15 K, x1 = 1	936.18	10.51
303.15 K, x1 = 0.0493	–	1.556
303.15 K, x1 = 0.0499	994.49	–
303.15 K, x1 = 0.0657	994.58	1.927
303.15 K, x1 = 0.1054	995.16	3.169
303.15 K, x1 = 0.1987	992.48	6.987
303.15 K, x1 = 0.2946	–	10.53
303.15 K, x1 = 0.301	984.47	–
303.15 K, x1 = 0.3834	976.43	–
303.15 K, x1 = 0.388	–	14.11
303.15 K, x1 = 0.5041	965	15.44
303.15 K, x1 = 0.6	956.5	15.05
303.15 K, x1 = 0.6974	949.81	–
303.15 K, x1 = 0.7003	–	13.42
303.15 K, x1 = 0.8009	942.76	–
303.15 K, x1 = 0.8019	–	11.43
303.15 K, x1 = 0.898	–	10
303.15 K, x1 = 0.9031	936.96	–
303.15 K, x1 = 1	932.26	8.522
313.15 K, x1 = 0.0493	–	1.195
313.15 K, x1 = 0.0499	990.11	–
313.15 K, x1 = 0.0657	989.79	1.45
313.15 K, x1 = 0.1054	989.39	2.272
313.15 K, x1 = 0.1987	985.28	4.622
313.15 K, x1 = 0.2946	–	6.748
313.15 K, x1 = 0.301	976.815	–
313.15 K, x1 = 0.3834	968.73	–
313.15 K, x1 = 0.388	–	8.852
313.15 K, x1 = 0.5041	957.32	9.719
313.15 K, x1 = 0.6	948.83	9.424
313.15 K, x1 = 0.6974	942.12	–
313.15 K, x1 = 0.7003	–	8.652
313.15 K, x1 = 0.8009	935.01	–
313.15 K, x1 = 0.8019	–	7.547
313.15 K, x1 = 0.898	–	6.716
313.15 K, x1 = 0.9031	929.16	–
313.15 K, x1 = 1	924.42	5.833
323.15 K, x1 = 0.0493	–	0.9978
323.15 K, x1 = 0.0499	985.07	–
323.15 K, x1 = 0.0657	984.41	1.133
323.15 K, x1 = 0.1054	983.17	1.643
323.15 K, x1 = 0.1987	977.79	3.242
323.15 K, x1 = 0.2946	–	4.581
323.15 K, x1 = 0.301	968.97	–
323.15 K, x1 = 0.3834	960.83	–
323.15 K, x1 = 0.388	–	5.886
323.15 K, x1 = 0.5041	949.46	6.458
323.15 K, x1 = 0.6	940.99	6.319
323.15 K, x1 = 0.6974	934.27	–
323.15 K, x1 = 0.7003	–	5.881
323.15 K, x1 = 0.8009	927.12	–
323.15 K, x1 = 0.8019	–	5.229
323.15 K, x1 = 0.898	–	4.725
323.15 K, x1 = 0.9031	921.24	–
323.15 K, x1 = 1	916.48	4.177
333.15 K, x1 = 0.0493	–	0.817
333.15 K, x1 = 0.0499	979.47	–
333.15 K, x1 = 0.0657	978.52	0.9621
333.15 K, x1 = 0.1054	976.55	–
333.15 K, x1 = 0.1987	970.11	2.379
333.15 K, x1 = 0.2946	–	3.261
333.15 K, x1 = 0.301	960.9	–
333.15 K, x1 = 0.3834	952.72	–
333.15 K, x1 = 0.388	–	4.107
333.15 K, x1 = 0.5041	941.41	4.499
333.15 K, x1 = 0.6	932.98	4.429
333.15 K, x1 = 0.6974	926.28	–
333.15 K, x1 = 0.7003	–	4.177
333.15 K, x1 = 0.8009	919.16	–
333.15 K, x1 = 0.8019	–	3.78
333.15 K, x1 = 0.898	–	3.463
333.15 K, x1 = 0.9031	913.22	–
333.15 K, x1 = 1	908.46	3.108
343.15 K, x1 = 0.0493	–	0.6997
343.15 K, x1 = 0.0499	973.37	–
343.15 K, x1 = 0.0657	972.17	0.7903
343.15 K, x1 = 0.1054	969.57	1.023
343.15 K, x1 = 0.1987	962.17	1.747
343.15 K, x1 = 0.2946	–	2.416
343.15 K, x1 = 0.301	952.65	–
343.15 K, x1 = 0.3834	944.43	–
343.15 K, x1 = 0.388	–	2.986
343.15 K, x1 = 0.5041	933.17	3.255
343.15 K, x1 = 0.6	924.8	3.227
343.15 K, x1 = 0.6974	918.16	–
343.15 K, x1 = 0.7003	–	3.075
343.15 K, x1 = 0.8009	911	–
343.15 K, x1 = 0.8019	–	2.827
343.15 K, x1 = 0.898	–	2.618
343.15 K, x1 = 0.9031	905.06	–
343.15 K, x1 = 1	900.3	2.385
